Assays:
Assay type in all cases: cell-based, human
[1] = system: CD38; assay: CD38 surface expression in MM cell lines by flow cytometry
Description: Cell Treatment with EDO-S101 MM cells (MM1S, JJN3, KMS12-BM, RPMI-8226, U266, MOLP-8) were either treated with a control (0 μM EDO-S101, DMSO vehicle) or treated with EDO-S101 (0.1, 0.5, 1 or 2.5 μM in DMSO) for 48 hours, unless indicated otherwise.
For surface staining, cells were incubated with the appropriate antibodies and 7AAD (Immunostep) for 15 min in the dark. Data were acquired using a FACSCalibur cytometer (BD Biosciences) and analyzed using Infinicyt™ software (Cytognos). Specifically, the expression of CD38 or ligands for NK cell activating receptors (MICA, MICB, ULBP1-3, PVR and CD112) in MM cell lines was determined on the viable cell population (7AAD-). In primary myeloma cells, the expression of CD38 was analyzed over the viable myeloma population using the panel CD138-FITC/CD56-PE/7AAD/CD38-APC, whereas MICA/B-AF488/CD56-PE/7AAD/CD38-APC panel was used to determine MICA/B expression. Normalized median fluorescence intensity (MFI) was calculated by dividing median fluorescence obtained with the specific antibody by median fluorescence of the corresponding isotype control. MFI for each treatment was expressed as a percentage relative to the control (100%, cells cultured in media with DMSO). […]

[2] = system: CD38; assay: CD38 expression by immunofluorescence in MM cell lines; details: RPMI-8226, MOLP-8; 2.5 μM; relative to DMSO control
Description: Immunofluorescence After appropriate treatments in vitro, cells were placed on glass slides coated with poly-L-lysine followed by 15 minutes incubation in a cell culture incubator. Cells were fixed with 4% paraformaldehyde for 30 minutes, blocked with BSA 100 μg/mL for 1 h at room temperature and incubated with a primary antibody (anti-CD38 antibody (1:100)) overnight at 4° C. The incubation with the anti-mouse secondary antibody, labelled with Alexa Fluor 488, was performed in darkness for 1 h at room temperature. After three washes for 5 min in PBS, nuclei were stained with DAPI (Sigma) 1:1000 in PBS for 5 min at room temperature. Finally, cells were washed three times for 10 min in PBS and slides were then mounted using VECTASHIELD Mounting Medium (Vector Laboratories, Burlingame, CA). Fluorescent images were acquired with a LEICA SP5 DMI-6000B confocal microscope (Leica, Wetzlar, Germany) with a 63.0× lens zoomed in 6×.

[3] = system: CD38; assay: CD38 expression on primary myeloma cells from patients ex vivo, flow cytometry; details: 2.5 μM, 48 hours; 3 out of 11 patients (low basal expression); not observed with high basal CD38
Description: For surface staining, cells were incubated with the appropriate antibodies and 7AAD (Immunostep) for 15 min in the dark. Data were acquired using a FACSCalibur cytometer (BD Biosciences) and analyzed using Infinicyt™ software (Cytognos). Specifically, the expression of CD38 or ligands for NK cell activating receptors (MICA, MICB, ULBP1-3, PVR and CD112) in MM cell lines was determined on the viable cell population (7AAD-). In primary myeloma cells, the expression of CD38 was analyzed over the viable myeloma population using the panel CD138-FITC/CD56-PE/7AAD/CD38-APC, whereas MICA/B-AF488/CD56-PE/7AAD/CD38-APC panel was used to determine MICA/B expression. Normalized median fluorescence intensity (MFI) was calculated by dividing median fluorescence obtained with the specific antibody by median fluorescence of the corresponding isotype control. MFI for each treatment was expressed as a percentage relative to the control (100%, cells cultured in media with DMSO).
CD38 expression was further examined by flow cytometry in malignant plasma cells from ex vivo cultures of 11 MM patients' bone marrow samples treated with tinostamustine (2.5 μM) for 48 hours.

[4] = system: MICA mRNA; assay: MICA mRNA by RT-qPCR in MM cell lines; details: four MM cell lines tested; 1 and 2.5 μM, 36 hours (MOLP-8 6 hours)
Description: Real time quantitative PCR (RT-qPCR) Total RNA was isolated using the RNeasy Mini Kit (Qiagen, Hilden, Germany). Following reverse transcription, PCR was performed using TaqMan Gene Expression Assays (Applied Biosystems, Foster City, CA, USA): CD38 (Hs01120071_m1), MICA (Hs00741286_m1), MICB (Hs00792952_m1) and GAPDH (Hs99999905_m1). The results were expressed as fold change relative to expression of the target gene in control cells, using endogenous expression of GAPDH for normalization.

[5] = system: MM cells (MOLP-8); assay: Daratumumab-mediated ADCP, macrophage/myeloma co-culture; details: MM cells pre-treated 2.5 μM 48 hours; macrophages 3:1, daratumumab 4 hours; vs not pre-treated
Description: Mononuclear cells were isolated from buffy coats from healthy donors using density gradient centrifugation with Ficoll and subsequently CD14+ monocytes were magnetically isolated in an autoMACS® Pro Separator. Monocytes were cultured for 7 days in the presence of GM-CSF (10 ng/mL) to induce differentiation to macrophages. For the evaluation of ADCP, myeloma cells were either untreated or pre-treated with 2.5 μM EDO-S101 for 48 hours. Cells were washed to remove EDO-S101 from the culture medium, and untreated and pre-treated myeloma cells were stained with PKH26. Co-cultures of macrophages and myeloma cells^PKH26+ (ratio 3:1) were incubated with different concentrations of daratumumab or the corresponding isotype control for 4 hours at 37° C. ADCP was evaluated by flow cytometry with the panel: CD11b-FITC/PKH26/CD138-APC. […]
ADCP was quantified as the percentage of double positive events using the following formula: […]
‘Treatment double positive cells’ refers to the proportion of macrophages (as a percentage) determined to have phacocytosed MM cells in co-cultures treated with daratumumab. ‘Control double positive cells’ refers to the proportion of macrophages (as a percentage) determined to have phacocytosed MM cells in co-cultures that were ED-S101 untreated or pre-treated but not treated with daratumumab.
Elimination of myeloma cells was calculated using the following formula: […]

Cn1c(CCCCCCC(=O)NO)nc2cc(N(CCCl)CCCl)ccc21 [EDO-S101, 7-(5-(bis(2-chloroethyl)amino)-1-methyl-1H-benzo[d]imidazol-2-yl)-N-hydroxyheptanamide]
percentage of CD38+ cell population ([1]; JJN3 cell line, 1 and 2.5 μM): significantly increased
CD38 surface expression (normalized MFI) ([1]; MM1.S, JJN3, KMS12-BM, RPMI-8226, U226, MOLP-8, 0.1, 0.5, 1 and 2.5 μM, 48 hours, relative to DMSO control, only exception NCI-H929): significantly increased
CD38 expression, immunofluorescence [2]: increased
CD38 expression in primary myeloma cells [3]: slightly increased
expression of MICA at the mRNA level [4]: increased
ADCP: percentage of double positive events (macrophages that have phagocytosed myeloma cells) [5]: increased
ADCP: percentage of eliminated MM cells [5]: decreased
